According to patent publication US9765069B2, “Antimicrobial compounds” (OXFORD UNIVERSITY INNOVATION LIMITED, priority 2012, dated 2017):
≈ marks a conversion by molar mass, not a printed value.

Key:
P9B = experiment: MIC determination (bacteria), strain P9B; type: cell-based, S. pneumoniae; settings: 2-fold broth dilution
Method: (§1) MIC determination (bacteria); MICs were determined based on Clinical and Laboratory Standards Institute (CLSI) methodology (Methods for dilution antimicrobial susceptibility tests for bacteria that grow aerobically; Approved Standard—seventh edition. 2006, M7-A7, CLSI, Wayne Pa.) by a 2-fold broth dilution technique in Mueller Hinton (pH7.4 Biorad). For S. pneumoniae, the medium was supplemented with 2.5% laked horse blood. For H. influenzae, the medium was haemophilus test medium (H.T.M.). Overnight cultures were diluted to obtain the final inoculum of 10^5 cfu/well. Incubation was 37° C. overnight in ambient air. The MIC was defined as the lowest concentration which inhibited all visual growth and expressed in μg/ml. For each bacterial species, all of the molecules were tested in the same experiment in order to give a head-to-head comparison.

H4 = experiment: MIC determination (bacteria), strain H4; type: cell-based, H. influenzae; settings: haemophilus test medium
Method: as §1

E2 = experiment: MIC determination (bacteria), strain E2; type: cell-based, enterococcus; settings: 2-fold broth dilution
Method: as §1

S1 = experiment: MIC determination (bacteria), strain S1; type: cell-based, S. aureus; settings: 2-fold broth dilution
Method: as §1

P9 = experiment: MIC determination (bacteria), strain P9; type: cell-based, S. pneumoniae; settings: 2-fold broth dilution
Method: as §1

[1] = system: mammalian_red blood cell membrane; experiment: In vitro mammalian red blood cell membrane lysis activity; type: cell-based; settings: Active or inactive at 100 μM
From the text: (§2) These properties can be determined according to techniques that are well known in the art.

P1 = experiment: MIC determination (bacteria), strain P1; type: cell-based, S. pneumoniae; settings: 2-fold broth dilution
Method: as §1

[2] = system: human embryonic kidney 293 cells; experiment: in vitro toxicities against human embryonic kidney 293 cells; type: cell-based; settings: human embryonic kidney 293 cells
From the text: as §2

[3] = system: human peripheral blood cells; experiment: in vitro toxicities human peripheral blood cells; type: cell-based; settings: human peripheral blood cells
From the text: as §2

H3 = experiment: MIC determination (bacteria), strain H3; type: cell-based, H. influenzae; settings: haemophilus test medium
Method: as §1

S. aureus membrane = experiment: In vitro activity in depolarization of S. aureus membrane; type: cell-based; settings: read-out: DEP (IC50)
From the text: as §2

S26 = experiment: MIC determination (bacteria), strain S26; type: cell-based, S. aureus; settings: 2-fold broth dilution
Method: as §1

[4] = system: S2 (S. aureus 2, MRSA in vivo); experiment: MIC determination (bacteria), strain S2; type: cell-based; settings: 2-fold broth dilution
Method: as §1

E1 = experiment: MIC determination (bacteria), strain E1; type: cell-based, enterococcus; settings: 2-fold broth dilution
Method: as §1

S4 = experiment: MIC determination (bacteria), strain S4; type: cell-based, S. aureus; settings: 2-fold broth dilution
Method: as §1

[5] = aqueous solubility at pH 7.4; type: physicochemical; settings: aqueous solubility at pH 7.4 (water with 2% DMSO)
From the text: as §2

E. Coli RNAP = E. Coli RNAP (Escherichia coli, UniProt P0A8T7+P0A8V2); experiment: In vitro activity against E. Coli RNAP; type: biochemical
Chain of E. Coli RNAP (P0A8V2 whole entry): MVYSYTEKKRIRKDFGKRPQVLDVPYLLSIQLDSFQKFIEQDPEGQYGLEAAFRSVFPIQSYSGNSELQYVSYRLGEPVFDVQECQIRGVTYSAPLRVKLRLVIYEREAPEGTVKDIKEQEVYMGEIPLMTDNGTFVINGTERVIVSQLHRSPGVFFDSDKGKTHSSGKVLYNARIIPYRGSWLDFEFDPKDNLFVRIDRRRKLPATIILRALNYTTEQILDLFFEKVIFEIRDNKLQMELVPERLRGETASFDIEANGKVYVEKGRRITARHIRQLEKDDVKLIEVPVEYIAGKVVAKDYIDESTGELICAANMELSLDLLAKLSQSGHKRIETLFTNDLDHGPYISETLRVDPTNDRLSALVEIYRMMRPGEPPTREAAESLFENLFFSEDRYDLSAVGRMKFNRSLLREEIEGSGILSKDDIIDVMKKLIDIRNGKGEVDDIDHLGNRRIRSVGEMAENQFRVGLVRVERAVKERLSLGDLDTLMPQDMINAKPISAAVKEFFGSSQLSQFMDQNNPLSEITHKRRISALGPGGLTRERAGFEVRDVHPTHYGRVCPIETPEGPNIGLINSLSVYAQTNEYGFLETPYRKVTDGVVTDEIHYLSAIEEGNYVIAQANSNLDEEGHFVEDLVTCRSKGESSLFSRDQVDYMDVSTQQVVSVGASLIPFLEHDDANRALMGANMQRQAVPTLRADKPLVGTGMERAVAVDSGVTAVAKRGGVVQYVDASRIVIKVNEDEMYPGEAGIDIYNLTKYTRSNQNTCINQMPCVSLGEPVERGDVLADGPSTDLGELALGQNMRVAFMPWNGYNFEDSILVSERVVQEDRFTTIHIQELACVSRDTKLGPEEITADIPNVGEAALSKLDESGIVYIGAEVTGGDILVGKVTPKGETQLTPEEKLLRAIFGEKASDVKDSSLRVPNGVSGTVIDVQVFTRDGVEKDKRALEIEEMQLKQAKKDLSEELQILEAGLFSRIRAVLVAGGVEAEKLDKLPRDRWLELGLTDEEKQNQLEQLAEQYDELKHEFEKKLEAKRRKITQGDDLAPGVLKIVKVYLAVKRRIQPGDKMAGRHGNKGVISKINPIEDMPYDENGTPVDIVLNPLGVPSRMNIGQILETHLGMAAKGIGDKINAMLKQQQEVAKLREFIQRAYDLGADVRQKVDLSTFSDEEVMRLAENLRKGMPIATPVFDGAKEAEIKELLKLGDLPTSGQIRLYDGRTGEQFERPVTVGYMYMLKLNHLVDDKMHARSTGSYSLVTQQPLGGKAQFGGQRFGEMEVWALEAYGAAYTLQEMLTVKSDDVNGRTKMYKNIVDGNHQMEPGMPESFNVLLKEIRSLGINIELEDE
Chain of E. Coli RNAP (P0A8T7 whole entry): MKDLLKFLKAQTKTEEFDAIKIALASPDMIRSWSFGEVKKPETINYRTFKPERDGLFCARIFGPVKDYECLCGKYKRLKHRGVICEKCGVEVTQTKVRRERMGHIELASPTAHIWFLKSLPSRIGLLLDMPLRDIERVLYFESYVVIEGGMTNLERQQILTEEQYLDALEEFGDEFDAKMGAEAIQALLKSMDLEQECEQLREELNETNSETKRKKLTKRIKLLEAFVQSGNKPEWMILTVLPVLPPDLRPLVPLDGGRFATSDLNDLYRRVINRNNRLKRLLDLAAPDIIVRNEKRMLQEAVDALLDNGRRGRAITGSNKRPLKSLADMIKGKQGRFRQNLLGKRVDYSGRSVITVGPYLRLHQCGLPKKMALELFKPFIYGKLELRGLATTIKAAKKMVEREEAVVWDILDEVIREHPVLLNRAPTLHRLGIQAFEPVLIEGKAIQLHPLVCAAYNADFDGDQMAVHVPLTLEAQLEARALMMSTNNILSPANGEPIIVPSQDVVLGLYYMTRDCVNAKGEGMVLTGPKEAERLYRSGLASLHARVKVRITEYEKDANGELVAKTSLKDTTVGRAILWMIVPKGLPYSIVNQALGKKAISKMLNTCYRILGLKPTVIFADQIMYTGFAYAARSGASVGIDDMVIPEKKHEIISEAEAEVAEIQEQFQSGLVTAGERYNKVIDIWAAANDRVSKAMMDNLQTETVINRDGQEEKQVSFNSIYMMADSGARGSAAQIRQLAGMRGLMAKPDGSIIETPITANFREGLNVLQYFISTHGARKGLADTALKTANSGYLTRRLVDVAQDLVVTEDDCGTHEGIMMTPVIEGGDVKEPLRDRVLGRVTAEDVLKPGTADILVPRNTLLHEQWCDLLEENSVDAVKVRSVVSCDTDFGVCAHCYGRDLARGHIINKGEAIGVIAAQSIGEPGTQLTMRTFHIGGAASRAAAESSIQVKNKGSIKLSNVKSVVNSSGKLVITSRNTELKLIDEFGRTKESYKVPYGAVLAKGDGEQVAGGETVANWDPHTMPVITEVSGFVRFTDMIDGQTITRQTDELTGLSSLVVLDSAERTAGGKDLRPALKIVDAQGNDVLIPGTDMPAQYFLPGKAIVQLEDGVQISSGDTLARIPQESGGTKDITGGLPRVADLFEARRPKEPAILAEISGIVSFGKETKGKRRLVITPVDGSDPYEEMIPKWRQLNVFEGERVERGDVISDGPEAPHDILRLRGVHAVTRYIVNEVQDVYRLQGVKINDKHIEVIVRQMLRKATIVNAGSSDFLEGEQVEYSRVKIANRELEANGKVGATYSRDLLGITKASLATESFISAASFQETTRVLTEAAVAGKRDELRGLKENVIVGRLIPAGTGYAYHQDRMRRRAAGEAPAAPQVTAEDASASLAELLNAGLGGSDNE
Chain of E. Coli RNAP (P0A7Z4 whole entry partner): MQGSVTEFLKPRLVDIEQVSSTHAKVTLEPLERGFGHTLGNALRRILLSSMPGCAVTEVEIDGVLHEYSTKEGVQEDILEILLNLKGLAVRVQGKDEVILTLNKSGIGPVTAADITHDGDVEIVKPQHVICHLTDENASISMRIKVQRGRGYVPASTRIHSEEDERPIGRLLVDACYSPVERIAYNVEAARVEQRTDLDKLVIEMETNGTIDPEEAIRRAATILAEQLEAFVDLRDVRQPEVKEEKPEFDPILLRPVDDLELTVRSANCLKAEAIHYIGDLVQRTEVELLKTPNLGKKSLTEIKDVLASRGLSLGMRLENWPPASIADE
Chain of E. Coli RNAP (P0A800 whole entry partner): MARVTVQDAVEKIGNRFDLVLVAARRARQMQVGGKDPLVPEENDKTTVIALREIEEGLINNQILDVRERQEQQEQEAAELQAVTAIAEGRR
From the text: as §2

Structure (SMILES) | MIC P9B (P9B; Table 1) [µg/mL] | MIC H4 (H4; Table 1) [µg/mL] | MIC E2 (E2; Table 1) [µg/mL] | MIC S1 (S1; Table 1) [µg/mL] | MIC P9 (P9; Table 1) [µg/mL] | RBC membrane lysis activity (active/inactive) [1] | MIC P1 (P1; Table 1) [µg/mL] | Hek293 (LD50, μM) [2] [µM] | PMBC (LD50, μM) [3] [µM] | MIC H3 (H3; Table 1) [µg/mL] | IC50 (S. aureus membrane) [µM] | MIC S26 (S26; Table 1) [µg/mL] | MIC S2 ([4]; Table 1) [µg/mL] | MIC E1 (E1; Table 1) [µg/mL] | MIC S4 (S4; Table 1) [µg/mL] | SOL [5] [µM] | also measured
CCCCCCCC=CC(=O)N1C(=O)C(=C(O)CCC)C(=O)C1CC(C)C (centres unmarked) [23b] | 1 (≈ 2.65 µM) | 2 (≈ 5.3 µM) | <0.06 | <0.06 | 0.12 (≈ 0.318 µM) | Inactive^d | 0.25 (≈ 0.662 µM) | 90.9 | 90.9 | >64 | 49.5 | 0.5 (≈ 1.32 µM) | 0.25 (≈ 0.662 µM) | 0.25 (≈ 0.662 µM) | 0.25 (≈ 0.662 µM) |  | 
CC(C)CC1C(=O)C(=C(O)CCCCCc2ccccc2)C(=O)N1C(=O)c1ccccc1 (centres unmarked) [30a] |  |  |  |  |  | Inactive^d |  | >90.9 | 90.9 |  | > 100 |  |  |  |  | >300 | MIC P9B (P9B; Table 2): 4 µg/mL (≈ 9.23 µM); MIC H4 (H4; Table 2 and its footnote f): 8 µg/mL (≈ 18.5 µM); MIC E2 (E2; Table 2): 2 µg/mL (≈ 4.61 µM); MIC S1 (S1; Table 2): 2 µg/mL (≈ 4.61 µM); MIC P9 (P9; Table 2): 1 µg/mL (≈ 2.31 µM); MIC P1 (P1; Table 2): 1 µg/mL (≈ 2.31 µM); MIC H3 (H3; Table 2): >64 µg/mL; MIC S26 (S26; Table 2): 4 µg/mL (≈ 9.23 µM); MIC S2 ([4]; Table 2): 2 µg/mL (≈ 4.61 µM); MIC E1 (E1; Table 2): 2 µg/mL (≈ 4.61 µM); MIC S4 (S4; Table 2): 2 µg/mL (≈ 4.61 µM)
CCCCCCC(=O)N1CC(=O)C(=C(O)CC(C)CC(C)(C)C)C1=O (centres unmarked) [27h] |  |  |  |  |  |  |  | 30.3 | 90.9 |  |  |  |  |  |  | 150 to 300 | MIC P9B (P9B; Table 2): 1 µg/mL (≈ 2.85 µM); MIC H4 (H4; Table 2 and its footnote f): 2 µg/mL (≈ 5.69 µM); MIC E2 (E2; Table 2): 0.25 µg/mL (≈ 0.711 µM); IC50 (E. Coli RNAP): > 100 µM; MIC S1 (S1; Table 2): 0.25 µg/mL (≈ 0.711 µM); MIC P9 (P9; Table 2): <0.06 µg/mL; MIC P1 (P1; Table 2): <0.06 µg/mL; MIC H3 (H3; Table 2): 2 µg/mL (≈ 5.69 µM); MIC S26 (S26; Table 2): 0.5 µg/mL (≈ 1.42 µM); MIC S2 ([4]; Table 2): 0.5 µg/mL (≈ 1.42 µM); MIC E1 (E1; Table 2): 0.25 µg/mL (≈ 0.711 µM); MIC S4 (S4; Table 2): 0.5 µg/mL (≈ 1.42 µM)
CCCCCCCCCC(O)=C1C(=O)CCN(C(=O)c2ccc(OC)cc2)C1=O [25d] | 8 (≈ 19.9 µM) | 8 (≈ 19.9 µM) | 4 (≈ 9.96 µM) | 8 (≈ 19.9 µM) | 2 (≈ 4.98 µM) | Active | 2 (≈ 4.98 µM) | 90.9 | 90.9 | 64 (≈ 159 µM) | 69 | 8 (≈ 19.9 µM) | 4 (≈ 9.96 µM) | 4 (≈ 9.96 µM) | 4 (≈ 9.96 µM) | 150 to 300 | 
CNC(=O)[C@@H](C)[C@H]1C(=O)/C(=C(O)/C=C/C(C)=C/[C@@H](C)[C@H]2O[C@@]3(C)O[C@H](C=C[C@@]34CO4)[C@@H]2C)C(=O)N1[C@@H]1CC[C@H](O)[C@H](C)O1 [streptolydigin, reference compound] |  |  |  |  |  |  |  |  |  |  |  |  |  |  |  |  | IC50 (E. Coli RNAP): 38 µM
CCCCCCCC=CC(=O)N1C(=O)C(=C(C)O)C(=O)C1CC(C)C (centres unmarked) [23a] | 4 (≈ 11.4 µM) | 4 (≈ 11.4 µM) | 4 (≈ 11.4 µM) | 8 (≈ 22.9 µM) | 1 (≈ 2.86 µM) | Inactive^d | 2 (≈ 5.72 µM) | 90.9 | 90.9 | 64 (≈ 183 µM) | 88 | 16 (≈ 45.8 µM) | 8 (≈ 22.9 µM) | 8 (≈ 22.9 µM) | 8 (≈ 22.9 µM) |  | 
CCCCCCCC=CC(=O)N1C(=O)C(=C(O)CCCCC)C(=O)C1CC(C)C (centres unmarked) [23c] | 2 (≈ 4.93 µM) |  | 0.12 (≈ 0.296 µM) | 0.25 (≈ 0.616 µM) | <0.06 | Inactive^d | <0.06 | 30.3 | 30.3 | >64 | 19.6 | 0.5 (≈ 1.23 µM) | 0.5 (≈ 1.23 µM) | 0.25 (≈ 0.616 µM) | 0.5 (≈ 1.23 µM) |  | 
CCCCCCCCCC(O)=C1C(=O)C(CCSC)N(C(=O)Cc2cccs2)C1=O (centres unmarked) [24m] | 4 (≈ 8.86 µM) | 4 (≈ 8.86 µM) | 0.5 (≈ 1.11 µM) | 2 (≈ 4.43 µM) | 0.25 (≈ 0.554 µM) | Active | 0.5 (≈ 1.11 µM) | 30.3 | 90.9 | 16 (≈ 35.4 µM) | > 100 | 4 (≈ 8.86 µM) | 2 (≈ 4.43 µM) | 2 (≈ 4.43 µM) | 2 (≈ 4.43 µM) | >300 | 
CCCCCCCCCC(O)=C1C(=O)C(CCSC)N(C(=O)CC(C)CC(C)(C)C)C1=O (centres unmarked) [24k] | 2 (≈ 4.28 µM) | 64 (≈ 137 µM) | 0.25 (≈ 0.535 µM) | 0.5 (≈ 1.07 µM) | 0.12 (≈ 0.257 µM) | Active | 0.25 (≈ 0.535 µM) | 10.1 | 90.9 | >64 | 68.8 | 1 (≈ 2.14 µM) | 0.5 (≈ 1.07 µM) | 0.5 (≈ 1.07 µM) | 0.5 (≈ 1.07 µM) | >300 | 
CCCCCCC(=O)N1CC(=O)C(=C(O)CC2CC3CCC2C3)C1=O (centres unmarked) [27a] |  |  |  |  |  | Inactive^d |  | 90.9 | 90.9 |  | > 100 |  |  |  |  |  | MIC P9B (P9B; Table 2): 4 µg/mL (≈ 11.5 µM); MIC H4 (H4; Table 2 and its footnote f): 1 µg/mL (≈ 2.88 µM); MIC E2 (E2; Table 2): 2 µg/mL (≈ 5.76 µM); MIC S1 (S1; Table 2): 1 µg/mL (≈ 2.88 µM); MIC P9 (P9; Table 2): 0.5 µg/mL (≈ 1.44 µM); MIC P1 (P1; Table 2): 1 µg/mL (≈ 2.88 µM); MIC H3 (H3; Table 2): 4 µg/mL (≈ 11.5 µM); MIC S26 (S26; Table 2): 4 µg/mL (≈ 11.5 µM); MIC S2 ([4]; Table 2): 2 µg/mL (≈ 5.76 µM); MIC E1 (E1; Table 2): 1 µg/mL (≈ 2.88 µM); MIC S4 (S4; Table 2): 2 µg/mL (≈ 5.76 µM)
CCCCCCCC(O)=C1C(=O)C(CCSC)N(C(=O)C2CCCCC2)C1=O (centres unmarked) [24e] | 1 (≈ 2.44 µM) | 2 (≈ 4.88 µM) | 0.5 (≈ 1.22 µM) | 0.5 (≈ 1.22 µM) | 0.12 (≈ 0.293 µM) | Inactive^d | 0.12 (≈ 0.293 µM) | >90.9 | >90.9 | 16 (≈ 39.1 µM) | > 100 | 1 (≈ 2.44 µM) | 0.5 (≈ 1.22 µM) | 0.25 (≈ 0.61 µM) | 2 (≈ 4.88 µM) | >300 | 
